Source: publication PMC5218480 (PLoS ONE, 2017)

Tested on: MV-4-11 cells
Test: Gene expression microarray analysis (Affymetrix PrimeView) and GSEA
Type: cell-based, human
Set-up: RFU PODN (11730768_x_at) / Fold change /veh PODN (11730768_x_at) / RFU LINC00158 (11744669_a_at) / Fold change /veh LINC00158 (11744669_a_at) / RFU DUSP10 (11751237_a_at) / Fold change /veh DUSP10 (11751237_a_at) / RFU ID3 (11757404_x_at) / Fold change /veh ID3 (11757404_x_at) / RFU PLEKHG5 (11737974_s_at) / Fold change /veh PLEKHG5 (11737974_s_at) / RFU LRRC4B (11730491_at) / Fold change /veh LRRC4B (11730491_at) / RFU GIMAP4 (11747438_a_at) / Fold change /veh GIMAP4 (11747438_a_at) / RFU KRT8 (11758183_x_at) / Fold change /veh KRT8 (11758183_x_at) / RFU CNN1 (11734310_a_at) / Fold change /veh CNN1 (11734310_a_at) / RFU VPS37D (11726825_at) / Fold change /veh VPS37D (11726825_at) / RFU C10orf10 (11716522_x_at) / Fold change /veh C10orf10 (11716522_x_at) / RFU KIR2DL2 /// KIR2DL4 /// KIR2DL5A /// KIR2DL5B /// KIR2DS1 /// KIR2DS2 /// KIR2DS3 /// KIR2DS4 /// KIR3DL3 /// KIR3DL3 /// KIR3DS1 (11738374_at) / Fold change /veh KIR2DL2 /// KIR2DL4 /// KIR2DL5A /// KIR2DL5B /// KIR2DS1 /// KIR2DS2 /// KIR2DS3 /// KIR2DS4 /// KIR3DL3 /// KIR3DL3 /// KIR3DS1 (11738374_at) / RFU C1QL1 (11718748_at) / Fold change /veh C1QL1 (11718748_at) / RFU TMPRSS4 (11747572_a_at) / Fold change /veh TMPRSS4 (11747572_a_at) / RFU HAMP (11756126_x_at) / Fold change /veh HAMP (11756126_x_at) / RFU RNFT2 (11725882_a_at) / Fold change /veh RNFT2 (11725882_a_at) / RFU NR4A2 (11747474_a_at) / Fold change /veh NR4A2 (11747474_a_at) / RFU ABCC12 (11746883_a_at) / Fold change /veh ABCC12 (11746883_a_at) / RFU TMEM136 (11760407_x_at) / Fold change /veh TMEM136 (11760407_x_at) / RFU CLDN22 /// WWC2 (11732394_at) / Fold change /veh CLDN22 /// WWC2 (11732394_at) / RFU HLA-DPB1 (11760878_x_at) / Fold change /veh HLA-DPB1 (11760878_x_at) / RFU SPINT1 (11716480_a_at) / Fold change /veh SPINT1 (11716480_a_at) / RFU GAP43 (11754022_s_at) / Fold change /veh GAP43 (11754022_s_at) / RFU A4GNT (11735810_at) / Fold change /veh A4GNT (11735810_at) / RFU PRB3 (11715151_x_at) / Fold change /veh PRB3 (11715151_x_at) / RFU TUBB4B (11761932_at) / Fold change /veh TUBB4B (11761932_at) / RFU CAPN14 (11732068_a_at) / Fold change /veh CAPN14 (11732068_a_at) / RFU TMCC2 (11721928_a_at) / Fold change /veh TMCC2 (11721928_a_at) / RFU IRGQ (11745062_a_at) / Fold change /veh IRGQ (11745062_a_at) / RFU FAM174B (11720279_a_at) / Fold change /veh FAM174B (11720279_a_at) / RFU TMPRSS4 (11748680_a_at) / Fold change /veh TMPRSS4 (11748680_a_at) / RFU FAM212B (11763350_a_at) / Fold change /veh FAM212B (11763350_a_at) / RFU PLEKHG5 (11743358_a_at) / Fold change /veh PLEKHG5 (11743358_a_at) / RFU ZSCAN30 (11745921_a_at) / Fold change /veh ZSCAN30 (11745921_a_at) / RFU CMKLR1 (11741424_a_at) / Fold change /veh CMKLR1 (11741424_a_at) / RFU LOC101060620 /// MAPK8IP1 (11723275_at) / Fold change /veh LOC101060620 /// MAPK8IP1 (11723275_at) / RFU SPTSSB (11747773_x_at) / Fold change /veh SPTSSB (11747773_x_at) / RFU PRSS12 (11739890_at) / Fold change /veh PRSS12 (11739890_at) / RFU BIN1 (11741810_x_at) / Fold change /veh BIN1 (11741810_x_at) / RFU WNT11 (11732464_a_at) / Fold change /veh WNT11 (11732464_a_at) / RFU C10orf10 (11716521_a_at) / Fold change /veh C10orf10 (11716521_a_at) / RFU C5orf56 (11738089_at) / Fold change /veh C5orf56 (11738089_at) / RFU CYB561 (11721691_x_at) / Fold change /veh CYB561 (11721691_x_at) / RFU ANKRD19P (11752326_a_at) / Fold change /veh ANKRD19P (11752326_a_at) / RFU OR2T12 /// OR2T33 /// OR2T8 (11738714_s_at) / Fold change /veh OR2T12 /// OR2T33 /// OR2T8 (11738714_s_at) / RFU VCAN (11748164_a_at) / Fold change /veh VCAN (11748164_a_at) / RFU JSRP1 (11732532_at) / Fold change /veh JSRP1 (11732532_at) / RFU KRTAP10-11 (11738290_x_at) / Fold change /veh KRTAP10-11 (11738290_x_at) / RFU MYO3A (11730013_a_at) / Fold change /veh MYO3A (11730013_a_at) / RFU EBF3 (11725865_a_at) / Fold change /veh EBF3 (11725865_a_at) / RFU CAMK2N1 (11719241_x_at) / Fold change /veh CAMK2N1 (11719241_x_at) / RFU C5orf56 (11738088_a_at) / Fold change /veh C5orf56 (11738088_a_at) / RFU OLFML3 (11715873_a_at) / Fold change /veh OLFML3 (11715873_a_at) / RFU LOC100653217 /// NTM (11731650_a_at) / Fold change /veh LOC100653217 /// NTM (11731650_a_at) / RFU MAPK11 (11762145_a_at) / Fold change /veh MAPK11 (11762145_a_at) / RFU FIZ1 (11724087_x_at) / Fold change /veh FIZ1 (11724087_x_at) / RFU OASL (11726364_x_at) / Fold change /veh OASL (11726364_x_at) / RFU SOX15 (11748057_x_at) / Fold change /veh SOX15 (11748057_x_at) / RFU CD79A (11719716_a_at) / Fold change /veh CD79A (11719716_a_at) / RFU HIST1H1D (11736915_at) / Fold change /veh HIST1H1D (11736915_at) / RFU CASKIN2 (11723855_a_at) / Fold change /veh CASKIN2 (11723855_a_at) / RFU LOC730098 (11760151_x_at) / Fold change /veh LOC730098 (11760151_x_at) / RFU OR4N2 (11742367_at) / Fold change /veh OR4N2 (11742367_at) / RFU PRRT2 (11749266_a_at) / Fold change /veh PRRT2 (11749266_a_at) / RFU SNX32 (11753110_a_at) / Fold change /veh SNX32 (11753110_a_at) / RFU CDHR5 (11726645_a_at) / Fold change /veh CDHR5 (11726645_a_at) / RFU RCAN1 (11760418_a_at) / Fold change /veh RCAN1 (11760418_a_at) / RFU FAM167A (11723789_a_at) / Fold change /veh FAM167A (11723789_a_at) / RFU FAM26E (11764081_at) / Fold change /veh FAM26E (11764081_at) / RFU ISYNA1 (11749810_s_at) / Fold change /veh ISYNA1 (11749810_s_at) / RFU ACY1 (11761880_at) / Fold change /veh ACY1 (11761880_at) / RFU 11764098_at / Fold change /veh 11764098_at / RFU SAMD14 (11745864_x_at) / Fold change /veh SAMD14 (11745864_x_at) / RFU NPB (11741838_a_at) / Fold change /veh NPB (11741838_a_at) / RFU TMPRSS6 (11731388_a_at) / Fold change /veh TMPRSS6 (11731388_a_at) / RFU KRTAP10-2 (11738614_at) / Fold change /veh KRTAP10-2 (11738614_at) / RFU ARHGAP8 /// PRR5-ARHGAP8 (11727945_x_at) / Fold change /veh ARHGAP8 /// PRR5-ARHGAP8 (11727945_x_at) / RFU KRTAP5-7 /// NADSYN1 (11734609_at) / Fold change /veh KRTAP5-7 /// NADSYN1 (11734609_at) / RFU RASL12 (11751679_a_at) / Fold change /veh RASL12 (11751679_a_at) / RFU CDKN2B (11736163_a_at) / Fold change /veh CDKN2B (11736163_a_at) / RFU PRF1 (11729649_at) / Fold change /veh PRF1 (11729649_at) / RFU, ZNF638 /// ZNF638-IT1 / Fold change vs veh, ZNF638 /// ZNF638-IT1 / RFU, PANK3 / Fold change vs veh, PANK3 / RFU, SH3YL1 / Fold change vs veh, SH3YL1 / RFU, ZEB2 / Fold change vs veh, ZEB2 / RFU, NRIP1 / Fold change vs veh, NRIP1 / RFU, PTTG1IP / Fold change vs veh, PTTG1IP / RFU, CAPN2 / Fold change vs veh, CAPN2 / RFU, MED14 / Fold change vs veh, MED14 / RFU, SNORA58 / Fold change vs veh, SNORA58 / RFU, C1orf63 / Fold change vs veh, C1orf63 / RFU, LRRFIP1 / Fold change vs veh, LRRFIP1 / RFU, NDUFAF7 / Fold change vs veh, NDUFAF7 / RFU, SLC12A2 / Fold change vs veh, SLC12A2 / RFU, IBTK / Fold change vs veh, IBTK / RFU, ESF1 / Fold change vs veh, ESF1 / Fold change vs veh, TMEM50B / RFU, TAOK1 / Fold change vs veh, TAOK1 / RFU, ACBD3 / Fold change vs veh, ACBD3 / RFU, TMA16 / Fold change vs veh, TMA16 / RFU, RWDD3 / Fold change vs veh, RWDD3 / RFU, BCAT1 / Fold change vs veh, BCAT1 / RFU, EDEM3 / Fold change vs veh, EDEM3 / RFU, TMEM33 / Fold change vs veh, TMEM33 / RFU, WDR75 / Fold change vs veh, WDR75 / RFU, AHCTF1 / Fold change vs veh, AHCTF1 / RFU, TFRC / Fold change vs veh, TFRC / RFU, ZDHHC17 / Fold change vs veh, ZDHHC17 / RFU, NOM1 / Fold change vs veh, NOM1 / RFU, ARL8B / Fold change vs veh, ARL8B / RFU, ZBTB11 / Fold change vs veh, ZBTB11 / RFU, TAMM41 / Fold change vs veh, TAMM41 / RFU, KIAA1704 /// LOC100996395 / Fold change vs veh, KIAA1704 /// LOC100996395 / RFU, ING1 / Fold change vs veh, ING1 / RFU, TRMT61B / Fold change vs veh, TRMT61B / RFU, FUBP3 / Fold change vs veh, FUBP3 / RFU, TP53 / Fold change vs veh, TP53 / RFU, TNKS2 / Fold change vs veh, TNKS2 / RFU, ZFP14 / Fold change vs veh, ZFP14 / RFU, ACTR2 / Fold change vs veh, ACTR2 / RFU, PPP3R1 / Fold change vs veh, PPP3R1 / RFU, PIK3R1 / Fold change vs veh, PIK3R1 / RFU, HNRNPA1 / Fold change vs veh, HNRNPA1 / RFU, RNF170 / Fold change vs veh, RNF170 / RFU, ZNF28 / Fold change vs veh, ZNF28 / RFU, RNGTT / Fold change vs veh, RNGTT / RFU, OGT / Fold change vs veh, OGT / RFU, BRD1 / Fold change vs veh, BRD1 / RFU, MARS / Fold change vs veh, MARS / RFU, ZNF655 / Fold change vs veh, ZNF655 / RFU, FAHD1 / Fold change vs veh, FAHD1 / RFU, BDP1 / Fold change vs veh, BDP1 / RFU, LRRCC1 / Fold change vs veh, LRRCC1 / RFU, ARID1A / Fold change vs veh, ARID1A / RFU, ZNF146 / Fold change vs veh, ZNF146 / RFU, ZNF330 / Fold change vs veh, ZNF330 / RFU, GPN3 / Fold change vs veh, GPN3 / RFU, C9orf123 / Fold change vs veh, C9orf123 / RFU, N4BP2L2 / Fold change vs veh, N4BP2L2 / RFU, ARFIP1 / Fold change vs veh, ARFIP1 / RFU, FAM179B / Fold change vs veh, FAM179B / RFU, BCL10 / Fold change vs veh, BCL10 / RFU, UHRF1BP1L / Fold change vs veh, UHRF1BP1L / RFU, BET1 / Fold change vs veh, BET1 / RFU, CNOT2 / Fold change vs veh, CNOT2 / RFU, ZNF268 / Fold change vs veh, ZNF268 / Fold change vs veh, ZNF507 / RFU, DGCR2 / Fold change vs veh, DGCR2 / RFU, WDSUB1 / Fold change vs veh, WDSUB1 / Fold change vs veh, HSP90B1 /// MIR3652 / RFU, ADSS / Fold change vs veh, ADSS / RFU, GK / Fold change vs veh, GK / RFU, ZNF148 / Fold change vs veh, ZNF148 / RFU, TAF9 / Fold change vs veh, TAF9 / RFU, SLC1A5 / Fold change vs veh, SLC1A5 / RFU, SLMO2 / Fold change vs veh, SLMO2 / RFU, ABCC4 / Fold change vs veh, ABCC4 / RFU, LOC101060439 /// RAP1B / Fold change vs veh, LOC101060439 /// RAP1B / RFU, RFX7 / Fold change vs veh, RFX7 / RFU, GTPBP10 / Fold change vs veh, GTPBP10 / RFU, CNEP1R1 / Fold change vs veh, CNEP1R1 / RFU, BIVM-ERCC5 /// ERCC5 / Fold change vs veh, BIVM-ERCC5 /// ERCC5 / RFU, ILF3 / Fold change vs veh, ILF3 / RFU 11762660_at / Fold change /veh 11762660_at / RFU VCAN (11757783_s_at) / Fold change /veh VCAN (11757783_s_at) / RFU DDX43 (11728927_at) / Fold change /veh DDX43 (11728927_at) / RFU KRT8 (11758188_x_at) / Fold change /veh KRT8 (11758188_x_at) / RFU NKD1 (11759106_at) / Fold change /veh NKD1 (11759106_at) / RFU SRD5A1 (11742802_a_at) / Fold change /veh SRD5A1 (11742802_a_at) / RFU TPSAB1 /// TPSB2 (11721975_s_at) / Fold change /veh TPSAB1 /// TPSB2 (11721975_s_at) / RFU GSTM3 (11746129_a_at) / Fold change /veh GSTM3 (11746129_a_at) / RFU IL23R (11737362_x_at) / Fold change /veh IL23R (11737362_x_at) / RFU TMEM51 (11727254_a_at) / Fold change /veh TMEM51 (11727254_a_at) / RFU PIWIL2 (11732686_x_at) / Fold change /veh PIWIL2 (11732686_x_at) / RFU ORM1 (11744905_x_at) / Fold change /veh ORM1 (11744905_x_at) / RFU CCDC152 (11743942_at) / Fold change /veh CCDC152 (11743942_at) / RFU ECM1 (11717891_a_at) / Fold change /veh ECM1 (11717891_a_at) / RFU IL23R (11748794_a_at) / Fold change /veh IL23R (11748794_a_at) / RFU TNFAIP8L3 (11732012_x_at) / Fold change /veh TNFAIP8L3 (11732012_x_at) / RFU MBOAT4 (11741988_at) / Fold change /veh MBOAT4 (11741988_at) / RFU 11764193_at / Fold change /veh 11764193_at / RFU TMEM53 (11763286_at) / Fold change /veh TMEM53 (11763286_at) / RFU MAGEB2 (11727129_at) / Fold change /veh MAGEB2 (11727129_at) / RFU TMEM200A (11744735_a_at) / Fold change /veh TMEM200A (11744735_a_at) / RFU CCDC152 (11751479_a_at) / Fold change /veh CCDC152 (11751479_a_at) / RFU FAM211A (11726209_a_at) / Fold change /veh FAM211A (11726209_a_at) / RFU RGS16 (11746705_a_at) / Fold change /veh RGS16 (11746705_a_at) / RFU VCAN (11755009_s_at) / Fold change /veh VCAN (11755009_s_at) / RFU RHOB (11743442_s_at) / Fold change /veh RHOB (11743442_s_at) / RFU RGS16 (11720943_a_at) / Fold change /veh RGS16 (11720943_a_at) / RFU RGS16 (11720944_at) / Fold change /veh RGS16 (11720944_at) / RFU, VPS4B / Fold change vs veh, VPS4B / RFU, CREB1 / Fold change vs veh, CREB1 / RFU, DNAJC13 / Fold change vs veh, DNAJC13 / RFU, GNAQ / Fold change vs veh, GNAQ / RFU, CDK5R1 / Fold change vs veh, CDK5R1 / RFU, ZRANB3 / Fold change vs veh, ZRANB3 / RFU, CUL4A / Fold change vs veh, CUL4A / RFU, CCNY / Fold change vs veh, CCNY / RFU, UFL1 / Fold change vs veh, UFL1 / RFU, COG3 / Fold change vs veh, COG3 / RFU, DIAPH2 / Fold change vs veh, DIAPH2 / RFU, SKA2 / Fold change vs veh, SKA2 / RFU, AFF3 / Fold change vs veh, AFF3 / RFU, LMF1 / Fold change vs veh, LMF1 / RFU, IPO11 / Fold change vs veh, IPO11 / RFU, DFFB / Fold change vs veh, DFFB / RFU, FOXP1 / Fold change vs veh, FOXP1 / RFU, CARD8 / Fold change vs veh, CARD8 / RFU, STRN3 / Fold change vs veh, STRN3 / RFU, ADK / Fold change vs veh, ADK / RFU, RASSF2 / Fold change vs veh, RASSF2 / RFU, WIPF1 / Fold change vs veh, WIPF1 / RFU, LARP1B / Fold change vs veh, LARP1B / RFU, RASA1 / Fold change vs veh, RASA1 / RFU, RB1 / Fold change vs veh, RB1 / RFU, PPFIA1 / Fold change vs veh, PPFIA1 / RFU, MAT2A / Fold change vs veh, MAT2A / RFU, CCT5 / Fold change vs veh, CCT5 / RFU, WDR92 / Fold change vs veh, WDR92 / RFU, CUX1 / Fold change vs veh, CUX1 / RFU, TTC7A / Fold change vs veh, TTC7A / RFU, TMEM135 / Fold change vs veh, TMEM135 / RFU, DEPTOR / Fold change vs veh, DEPTOR / RFU, CPM / Fold change vs veh, CPM / RFU, DNAJB6 / Fold change vs veh, DNAJB6 / RFU, CACNA2D3 / Fold change vs veh, CACNA2D3 / RFU, DTX4 / Fold change vs veh, DTX4 / RFU, TFCP2 / Fold change vs veh, TFCP2 / RFU, GMCL1 /// GMCL1P1 / Fold change vs veh, GMCL1 /// GMCL1P1 / RFU, AEBP2 / Fold change vs veh, AEBP2 / RFU, SNHG1 /// SNORD22 /// SNORD25 /// SNORD26 /// SNORD27 /// SNORD28 /// SNORD29 /// SNORD31 / Fold change vs veh, SNHG1 /// SNORD22 /// SNORD25 /// SNORD26 /// SNORD27 /// SNORD28 /// SNORD29 /// SNORD31 / Fold change (Aza/veh), C12orf56 (ProbeSet 11735607_a_at) / Fold change (ACY-1035/veh), C12orf56 (ProbeSet 11735607_a_at) / Fold change (Aza/veh), FGFR1OP (ProbeSet 11751329_s_at) / Fold change (ACY-1035/veh), FGFR1OP (ProbeSet 11751329_s_at) / Fold change (Aza/veh), VPS36 (ProbeSet 11739960_a_at) / Fold change (ACY-1035/veh), VPS36 (ProbeSet 11739960_a_at) / RFU SYPL1 (11715823_x_at) / Fold change /veh SYPL1 (11715823_x_at) / RFU IGFBP7 (11715501_s_at) / Fold change /veh IGFBP7 (11715501_s_at) / RFU REEP3 (11722064_at) / Fold change /veh REEP3 (11722064_at) / RFU IGLL1 (11728026_x_at) / Fold change /veh IGLL1 (11728026_x_at): dose or concentration left out as unconfirmed
Conditions: MV-4-11 cells, 48 hours

Nc1ccc(-c2cccs2)cc1NC(=O)c1ccc2c(c1)cc(C1CC1)n2CCN1CCOCC1 [ACY-1035]
RFU CLDN22 /// WWC2 (11732394_at): 8.03 RFU
